PubChem BioAssay (NCI)
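In this assay, cells in 96-well plates receive the compound at five concentrations for 48 hours. Endpoints are linearly interpolated between the surrounding concentrations. At the GI50, growth is halved. TGI is the concentration that stops growth completely.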

Key:
Assay in all cases: inhibition of tumour cell growth, NCI panel, 48 h
[1] = tested on: NCI-H522 lung
[2] = tested on: KM12 colon
[3] = tested on: SF-268 CNS
[4] = tested on: COLO 205 colon
[5] = tested on: HCT-15 colon
[6] = tested on: HOP-62 NSCLC
[7] = tested on: UACC-62 melanoma
[8] = tested on: ACHN renal
[9] = tested on: NCI-H460 lung
[10] = tested on: PC-3 prostate

Row | SMILES | TGI [1] [µM] | TGI [2] [µM] | TGI [3] [µM] | TGI [4] [µM] | TGI [5] [µM] | TGI [6] [µM] | TGI [7] [µM] | TGI [8] [µM] | TGI [9] [µM] | TGI [10] [µM] | GI50 [1] [µM] | GI50 [10] [µM] | GI50 [2] [µM] | GI50 [3] [µM] | GI50 [5] [µM] | GI50 [6] [µM] | GI50 [7] [µM] | GI50 [8] [µM] | GI50 [9] [µM] | GI50 [4] [µM]
1 | COc1ccc(Nc2nc3c(N)cc(C(F)(F)F)cc3nc2-c2ccccc2)cc1 | > 100 | > 100 | > 100 | > 100 | > 100 | > 100 | > 100 | > 100 | > 100 | – | – | – | – | – | – | – | – | – | – | –
2 | N/C(=N\N=C=C1C(=O)Nc2ccc(F)cc21)NO | > 100 | > 100 | > 100 | > 100 | > 100 | > 100 | > 100 | > 100 | > 100 | – | – | – | – | – | – | – | – | – | – | –
3 | Nc1cc2c3c(cccc3c1)C(=O)N(CCN1CCN(CCN3C(=O)c4cccc5cc(N)cc(c45)C3=O)CC1)C2=O | > 100 | > 100 | > 100 | > 100 | > 100 | > 100 | > 100 | > 100 | > 100 | – | – | – | – | – | – | – | – | – | – | –
4 | CCCCCNC(=O)C1C(=O)N(CCCCC)C(=O)/C1=N\N (stereo unspecified) | > 100 | > 100 | > 100 | > 100 | > 100 | > 100 | > 100 | > 100 | > 100 | – | – | – | – | – | – | – | – | – | – | –
5 | COC12c3ccccc3-c3ccccc3C1[C@@H](C(=O)O)[C@H]2C(=O)O (stereo partly specified) | > 10 | > 10 | > 10 | > 10 | > 10 | > 10 | – | > 10 | > 10 | > 10 | – | – | – | – | – | – | – | – | – | –
6 | Nc1ccc(C(=O)O)c2[nH]c3ccccc3c(=O)c12 | > 100 | > 100 | > 100 | > 100 | > 100 | > 100 | > 100 | > 100 | > 100 | – | – | – | – | – | – | – | – | – | – | –
7 | Nc1ncn([C@@H]2C=C(CO)C(O)C2O)c(=O)n1 (stereo partly specified) | > 100 | > 100 | > 100 | > 100 | > 100 | > 100 | > 100 | > 100 | > 100 | – | – | – | – | – | – | – | – | – | – | –
8 | CCOc1ccc(NC(=O)/C(=C/c2ccccc2)C(C)=O)cc1 | 7.66 | 27.5 | 30.7 | 33.1 | 32.4 | 30.3 | 20.1 | 35.3 | 30.9 | – | – | – | – | – | – | – | – | – | – | –
9 | COC1C2c3ccccc3C(C#N)(Cc3ccc4c(c32)OCO4)N1C(=O)c1ccccc1 (stereo unspecified) | > 100 | > 100 | > 100 | 82.6 | > 100 | > 100 | > 100 | > 100 | > 100 | – | – | – | – | – | – | – | – | – | – | –
10 | Cn1cc(-c2nonc2-c2cn(C)c3ccc(Br)cc23)c2ccccc21 | > 100 | > 100 | > 100 | – | > 100 | > 100 | > 100 | > 100 | > 100 | > 100 | 3.01 | 4.06 | 2.63 | 5.79 | 2.17 | 5.51 | 3.37 | 4.29 | 3.31 | –
11 | Cc1ccc(C)c(NC(=O)CCC(=O)CC(=O)C(C)(C)C)c1 | > 100 | > 100 | > 100 | > 100 | > 100 | > 100 | > 100 | > 100 | > 100 | – | – | – | – | – | – | – | – | – | – | –
12 | S=c1nc(/C=C/c2ccc(Cl)c(Cl)c2)[nH][nH]1 | > 100 | > 100 | > 100 | – | > 100 | > 100 | > 100 | > 100 | > 100 | > 100 | – | 53.4 | – | – | – | – | – | – | – | –
13 | C[CH2][Sn]([CH2]C)([O]C(=O)c1cc(OC)c(OC)c(OC)c1)[O][Sn]([CH2]C)([CH2]C)[O]C(=O)c1cc(OC)c(OC)c(OC)c1 | 5.65 | > 100 | 44.1 | 43.6 | > 79 | > 100 | 36.7 | 40.8 | > 100 | – | 1.91 | – | > 100 | 20.6 | 43 | > 100 | 19.3 | 21.2 | > 100 | 20.3
14 | C=C1C(=O)C23C(O)C1CCC2C12CO[C@]3(O)[C@@H](O)C1C(C)(C)CCC2O (stereo partly specified) | 2.15 | 31.7 | 28.8 | 7.87 | 26.4 | 40.5 | 26.4 | 27.2 | 29.2 | – | – | – | – | – | – | – | – | – | – | –
15 | CCN1CCC(O)(c2ccccc2)C(C(=O)c2ccccc2)C1 (stereo unspecified) | 6.87 | > 100 | > 31.6 | 53.1 | > 61.2 | > 100 | > 69.2 | 30.5 | > 100 | – | – | – | – | – | – | – | – | – | – | –
16 | CN(C)c1ccc(N=C(C#N)c2nc(N)nc(N3CCOCC3)n2)cc1 | > 100 | > 100 | – | > 100 | > 100 | > 100 | > 100 | 68.4 | > 100 | > 100 | 26.5 | 44.1 | 53 | – | 52.9 | 55.2 | 46.3 | 23.3 | 48.1 | > 100
17 | COc1ccc(C=O)c(N(C)C(=O)C(C)(C)C)c1 | > 100 | > 100 | > 100 | > 100 | > 100 | > 100 | > 100 | > 100 | > 100 | – | – | – | – | – | – | – | – | – | – | –
18 | Oc1ccc(-c2nc(-c3ccc(F)cc3)c(-c3ccncc3)[nH]2)cc1 | – | 72.3 | > 100 | 40.5 | > 100 | > 100 | 15.1 | > 100 | 59.7 | > 100 | – | 14.1 | 23 | 19.3 | 13.2 | 36.7 | 3 | 3.97 | 18.8 | 4.77
19 | NC(=NCc1ccccc1)N/N=C\c1ccnc2ccccc12 | – | 47.9 | 28.6 | 3.21 | 37.4 | 32.1 | 29.4 | 32 | 31 | 35.9 | – | – | – | – | – | – | – | – | – | –
20 | CC(=O)NNc1nc(C)c(C(/C=C/c2ccc3c(c2)OCO3)=N/NC(=O)c2ccncc2)s1 | > 100 | > 100 | > 100 | – | > 100 | > 100 | > 100 | > 100 | > 100 | > 100 | – | – | – | – | – | – | – | – | – | –
21 | Fc1cccc(C=NC23CC4CC(CC(C4)C2)C3)c1 | > 100 | > 100 | > 100 | > 100 | > 100 | > 100 | > 100 | > 100 | > 100 | – | – | – | – | – | – | – | – | – | – | –
